As usually defined, the EC50 is the concentration needed to bring the measured effect to its halfway point. As usually defined, the inhibition is the percentage by which the read-out fell short of the control.

Here are results for 6 compounds from article PMC8556396, “Statin-mediated disruption of Rho GTPase prenylation and activity inhibits respiratory syncytial virus infection” (Communications Biology, 2021).

SMILES strings stand for the structures. Values joined by “and” are separate entries in the source; they are usually repeats but may differ in a detail not shown here. Identical values can stand only once.

The subject of test [1] is RSV-GFP. The experiment in a line: RSV-GFP infection of HEp-2 cells, automated imaging, dose-response. The note with it: human respiratory syncytial virus; for EC50: HEp-2, 2 h; for inhibition at 0.5 µM: read-out: RSV-GFP inhibition (%), log Conc (uM) -0.30103; for inhibition at 0.75 µM: read-out: RSV-GFP inhibition (%), log Conc (uM) -0.12494. It is filed as cell-based, Respiratory syncytial virus. The procedure: HEp-2 cells were seeded to black, flat, microclear-bottom 96-well plates (655096, Greiner Bio-One) at a density of 5000 cells per well and incubated at 37 °C/5% CO2 overnight. The following morning, cells were washed twice with serum-free EMEM and treated with RSV-GFP (MOI 0.5) in a minimal volume of serum-free media for 90 min under frequent agitation. Unbound virus was then removed and replaced with fresh serum-containing EMEM. All drug additions were performed 2 h post-viral exposure, unless otherwise stated. Nuclei were stained with Hoechst 33342 (H3570, Thermo Fisher Scientific) (at a final concentration of 1 µg/mL) 48 h p.i. and imaging was performed using the Cellomics ArrayScan VTI HCS Reader at ×10 magnification (SPARC BioCentre, The Hospital for Sick Children, Toronto, ON).
Automated quantification of infection rates from fluorescent images were performed in CellProfiler (v2.2.0)[86]. Major steps in the image analysis pipeline included: (1) background subtraction and smoothing, (2) segmentation of nuclei, (3) segmentation of GFP-fluorescent area, (4) object masking, and (5) measurement of nuclear number, size, and intensity. Infection rate was quantified from the ratio of nuclei within GFP-fluorescent area to the total number of nuclei (Fig. 1b). This method of analysis accounts for in vitro syncytium formation induced by RSV, whereby a single infected cell may arise from the fusion of multiple cells. Mean nuclear fluorescent intensity and size was quantified as a measure of cell viability. […]

In test [2] the test system is RSV-GFP. The experiment in a line: microbe, parasite or virus in culture. It is filed as cell-based, Respiratory syncytial virus. The conditions noted are these: human respiratory syncytial virus, HEp-2, read-out: RSV-GFP inhibition (%). The procedure: The following morning, cells were washed twice with serum-free EMEM and treated with RSV-GFP (MOI 0.5) in a minimal volume of serum-free media for 90 min under frequent agitation. Unbound virus was then removed and replaced with fresh serum-containing EMEM. All drug additions were performed 2 h post-viral exposure, unless otherwise stated.
Automated quantification of infection rates from fluorescent images were performed in CellProfiler (v2.2.0)[86]. Major steps in the image analysis pipeline included: (1) background subtraction and smoothing, (2) segmentation of nuclei, (3) segmentation of GFP-fluorescent area, (4) object masking, and (5) measurement of nuclear number, size, and intensity. Infection rate was quantified from the ratio of nuclei within GFP-fluorescent area to the total number of nuclei (Fig. 1b). This method of analysis accounts for in vitro syncytium formation induced by RSV, whereby a single infected cell may arise from the fusion of multiple cells. Mean nuclear fluorescent intensity and size was quantified as a measure of cell viability.
The MicroSource […] Collection (Discovery Systems Inc.) consisting of 2400 compounds was screened using the previously outlined RSV-GFP infection assay protocol. Robot-assisted addition of drugs was performed within 1 h of RSV-GFP infection and infection rates were assayed 48 h p.i. Drugs were provided as 10 mM stocks in DMSO and serial diluted to a final concentration of 10 µM, resulting in a final DMSO concentration of 0.1% v/v. […] Hits were selected based on the criteria that: (a) the tested drug caused a >50% reduction in infection rate and (b) was not overtly cytotoxic (<10% change in mean nuclear intensity relative to DMSO control). Z-factors were calculated on a per-plate basis to monitor assay quality.

For test [3], the system named is RSV A2. Description: Immunofluorescence staining and microscopy of RSV F and N. The note with it: GGPP 10.0 µM in the presence of atorvastatin 3.5 µM.
Test [4] deals with RSV A2. Description: Quantification of infectious virus production (plaque assay). It counts as cell-based, Respiratory syncytial virus. The note with it: Fig 7A; Rhosin 50 uM, EHT 1864 20 uM, ML 141 10 uM; replicate values. How it is done: HEp-2 cells were seeded to six-well plates at a density of 1 × 10^6 cells per well and incubated overnight at 37 °C/5% CO2. The following morning, cells were infected with RSV A2 (MOI 1.0) and treated with drugs 2 h post-viral exposure. The supernatant, containing progeny virions, was collected 48 h p.i., snap frozen, and stored at −80 °C. Quantification of infectious virus particles was performed by a traditional plaque assay. HEp-2 cells were seeded to six-well plates at a density of 1.5 × 10^6 cells per well and grown to 90% confluency. Cells were incubated with serial dilutions of the collected supernatants for 90 min at 37 °C/5% CO2 under frequent agitation. The inoculant was then removed and replaced with 4 mL of 1:1 4% FBS DMEM-F12/1% agarose. Plates were incubated for 5 days at 37 °C/5% CO2. Cells were then fixed with 10% formalin for 30 min at room temperature. After fixation and removal of agarose from each well, the cells were stained with 0.05% neutral red and plaques were quantified under a dissecting microscope.

Setting [5] is: HEp-2, RSV-GFP MOI 0.5, treated 2 h post-viral exposure.

For the compound `C[C@]12CC[C@@H]3c4ccc(O)cc4CC[C@H]3[C@@H]1CC[C@@H]2O` [Estradiol, 17β-Estradiol], the half-maximal effective concentration (EC50) with RSV-GFP [1] (setting [5]) came out at 1620 nM. Besides, in the test with RSV-GFP [1] (HEp-2, 48 h, replicate values), the inhibition at 0.5 µM is 7.41%. Besides, the inhibition at 10 µM in the test with RSV-GFP [2] was found to be 70.7%.
For the compound `CC(C)=CCC/C(C)=C/CC/C(C)=C/CC/C(C)=C/COP(=O)(O)OP(=O)(O)O.N.N.N` [GGPP, geranylgeranyl pyrophosphate ammonium salt], in the test with RSV A2 [3], the “restoration of F protein intensity” value worked out at 33.4 ± 3.5% and the “restoration of N protein intensity” value amounted to 50.4 ± 1.6%.
`O=C(Nc1ccc([N+](=O)[O-])cc1Cl)c1cc(Cl)ccc1O` [Niclosamide] had a 50% effective concentration (EC50) in the test on RSV-GFP [1] (setting [5]) of 443 nM. In addition, in the test with RSV-GFP [1] (HEp-2, 48 h, replicate values), the inhibition at 0.75 µM came to 73.9% and the inhibition at 0.5 µM was determined as 63.8%. In the test with RSV-GFP [1] (HEp-2, 48 h, read-out: RSV-GFP inhibition (%), log Conc (uM) -0.25964, replicate values), the inhibition at 0.55 µM was 59.2%. For the same compound, the inhibition at 0.45 µM in the test with RSV-GFP [1] (HEp-2, 48 h, read-out: RSV-GFP inhibition (%), log Conc (uM) -0.34679, replicate values) turned out to be 30.5%. Besides, the inhibition at 0.4 µM in the test with RSV-GFP [1] (HEp-2, 48 h, read-out: RSV-GFP inhibition (%), log Conc (uM) -0.39794, replicate values) turned out to be 21.3%. The inhibition at 0.35 µM with RSV-GFP [1] (HEp-2, 48 h, read-out: RSV-GFP inhibition (%), log Conc (uM) -0.45593, replicate values) was found to be 18.9%. Further, the inhibition at 0.3 µM in the test on RSV-GFP [1] (HEp-2, 48 h, read-out: RSV-GFP inhibition (%), log Conc (uM) -0.52288, replicate values) amounted to 4.57%. Besides, the inhibition at 0.2 µM in the test with RSV-GFP [1] (HEp-2, 48 h, read-out: RSV-GFP inhibition (%), log Conc (uM) -0.69897, replicate values) stood at 1.85%. In addition, in the test with RSV-GFP [2], the inhibition at 10 µM stood at 93.9%.
The compound `C#C[C@]1(O)CC[C@H]2[C@@H]3CCC4=CC(=O)CC[C@@H]4[C@H]3CC[C@@]21C` [Norethindrone, 19-Norethindrone] displayed an EC50 in the test with RSV-GFP [1] (setting [5]) of 705 nM. For the same compound, in the test with RSV-GFP [1] (HEp-2, 48 h, read-out: RSV-GFP inhibition (%), log Conc (uM) -0.09691, replicate values), the inhibition at 0.8 µM is 61.9%. In addition, the inhibition at 0.6 µM with RSV-GFP [1] (HEp-2, 48 h, read-out: RSV-GFP inhibition (%), log Conc (uM) -0.22185, replicate values) was found to be 41.8%. In addition, the inhibition at 0.5 µM in the test with RSV-GFP [1] (HEp-2, 48 h, replicate values) worked out at 19.2%. Further, the inhibition at 10 µM in the test with RSV-GFP [2] stood at 75.2%.
Regarding `N[C@H](Cc1c[nH]c2ccccc12)C(=O)N/N=C/c1ccc2nccnc2c1` [Rhosin], in the test with RSV A2 [4], the “Virus titre (log10 PFU/mL)” value is 5.176 log10 PFU/mL and 5.204 log10 PFU/mL and 5.079 log10 PFU/mL and 5.322 log10 PFU/mL.
In the test with RSV-GFP [1], `CC(C)[C@@H]1NC(=O)[C@H](C)OC(=O)[C@@H](C(C)C)NC(=O)[C@@H](C(C)C)OC(=O)[C@H](C(C)C)NC(=O)[C@H](C)OC(=O)[C@@H](C(C)C)NC(=O)[C@@H](C(C)C)OC(=O)[C@H](C(C)C)NC(=O)[C@H](C)OC(=O)[C@@H](C(C)C)NC(=O)[C@@H](C(C)C)OC1=O` [Valinomycin] showed an EC50 of 39 nM. Further, in the test with RSV-GFP [1] (HEp-2, 48 h, replicate values), the inhibition at 0.75 µM was 74.6% and the inhibition at 0.5 µM stood at 71.6%. Also, in the test on RSV-GFP [1] (HEp-2, 48 h, read-out: RSV-GFP inhibition (%), log Conc (uM) -0.60206, replicate values), the inhibition at 0.25 µM turned out to be 78.6%. The inhibition at 0.1 µM in the test on RSV-GFP [1] (HEp-2, 48 h, read-out: RSV-GFP inhibition (%), log Conc (uM) -1, replicate values) turned out to be 76.7%. Moreover, the inhibition at 0.09 µM in the test on RSV-GFP [1] (HEp-2, 48 h, read-out: RSV-GFP inhibition (%), log Conc (uM) -1.04576, replicate values) came to 77.4%. The inhibition at 0.06 µM in the test with RSV-GFP [1] (HEp-2, 48 h, read-out: RSV-GFP inhibition (%), log Conc (uM) -1.22185, replicate values) is 71.2%. Besides, the inhibition at 0.05 µM with RSV-GFP [1] (HEp-2, 48 h, read-out: RSV-GFP inhibition (%), log Conc (uM) -1.30103, replicate values) was found to be 77.4%. In addition, the inhibition at 10 µM in the test on RSV-GFP [2] is 88%.
